Results on 13 molecules are retold here after ChEMBL document CHEMBL1201862, “PubChem BioAssay data set” (2004).

Molecules are shown by their SMILES.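 The compound was tested at five concentrations on cells cultured in 96-well plates, with a 48-hour exposure period. GI50 = concentration required for 50% inhibition of growth.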 Activity calls are given as the source filed them. Cut-off read from the data, not from the text of the source: active = GI50 up to about 1.1 µM and inactive = higher.

Test systems include K562; HCT-15; U-251; SN12C; KM12; MOLT-4; SK-MEL-28; SK-MEL-2; Hs-578T; OVCAR-8; A498; RPMI-8226; MDA-N; HOP-62; SW-620; TK-10; MCF7; DU-145.
Common to all, as to experiment: NCI tumour cell line growth inhibition, 48 h

With `NC(CCP(=O)(O)O)C(=O)O` (stereo unspecified), the GI50 was > 100 µM (inactive) in the test on K562; more than 100 µM in the test on HCT-15; > 100 µM (inactive) in the test on U-251; > 100 µM (inactive) with SN12C; > 100 µM (inactive) in the test with KM12; > 100 µM (inactive) with MOLT-4. Besides, the GI50 in the test on SK-MEL-28, in the test on SK-MEL-2, in the test with Hs-578T, in the test with OVCAR-8, in the test with A498 and in the test on RPMI-8226 was > 100 µM (inactive) throughout. The GI50 in the test on MDA-N, in the test with HOP-62, in the test with SW-620 and with TK-10 was > 100 µM (inactive) in each case.

For `COc1ccc2c(c1)CCN=C2Cc1ccccc1CCCl`, the GI50 in the test on K562 was 18 µM (inactive); in the test on HCT-15, 20.6 µM; in the test with U-251, 33.1 µM (inactive); in the test on SN12C, 24.3 µM (inactive); with KM12, 23.1 µM (inactive); in the test with MOLT-4, 23.7 µM (inactive). Moreover, the GI50 with SK-MEL-28 is 32.6 µM (inactive); with SK-MEL-2, 25.5 µM (inactive); in the test on Hs-578T, 62.4 µM (inactive); with OVCAR-8, 23.4 µM (inactive); in the test on A498, 51.9 µM (inactive); with RPMI-8226, 17.6 µM (inactive). In addition, the GI50 in the test on MCF7 was 26 µM (inactive); in the test with HOP-62 it was 36.5 µM (inactive); with SW-620, 26.1 µM (inactive); with TK-10, 53.2 µM (inactive); in the test with DU-145, 50.5 µM (inactive).

For the molecule `CC(=O)ON(C(C)=O)c1ccc(-c2nc3ccccc3s2)cc1`, the GI50 was 41 µM (inactive) in the test on K562; 24.4 µM with HCT-15; 24.2 µM (inactive) in the test with U-251; 40.7 µM (inactive) in the test with SN12C; 15.1 µM (inactive) with KM12; 13.3 µM (inactive) in the test with MOLT-4. The GI50 was 31.8 µM (inactive) in the test with SK-MEL-28; 24.8 µM (inactive) with SK-MEL-2; 21.2 µM (inactive) with Hs-578T; 21.2 µM (inactive) with OVCAR-8; 0.315 µM (active) in the test on A498; 18.3 µM (inactive) in the test on RPMI-8226. Moreover, the GI50 with MDA-N is 27.2 µM (inactive); in the test with HOP-62, 22 µM (inactive); in the test on SW-620, 26.2 µM (inactive); in the test on TK-10, 34.4 µM (inactive); in the test on DU-145 it was 26.2 µM (inactive).

Take `Nc1ccc(Cc2ccc(N)c(C(=O)O)c2)cc1C(=O)O`: the GI50 was > 100 µM (inactive) with K562; more than 100 µM with HCT-15; > 100 µM (inactive) with U-251; > 100 µM (inactive) in the test on SN12C; > 100 µM (inactive) with KM12; > 100 µM (inactive) in the test on SK-MEL-28. In addition, the GI50 with SK-MEL-2, with Hs-578T, in the test on OVCAR-8, with A498, with RPMI-8226 and in the test with MCF7 was > 100 µM (inactive) throughout. Also, the GI50 with MDA-N, in the test with HOP-62, in the test with SW-620 and in the test on TK-10 was > 100 µM (inactive) in each case.

Regarding `C=C(C)C(=O)O[C@H]1CC2(CO)O[C@@H]2CC/C(COC(C)=O)=C/C2OC(=O)C(=C)[C@@H]21` (stereo partly specified), the GI50 in the test on K562 is 23.9 µM (inactive); in the test with HCT-15 it was 26.2 µM; with U-251, > 100 µM (inactive); in the test with SN12C, 92 µM (inactive); with KM12, > 85.3 µM (inactive); in the test on MOLT-4 it was 7.93 µM (inactive). Moreover, the GI50 is 23.6 µM (inactive) in the test on SK-MEL-28; 52.4 µM (inactive) in the test with SK-MEL-2; > 92.5 µM (inactive) in the test with Hs-578T; 22 µM (inactive) with OVCAR-8; > 100 µM (inactive) with A498; 7.16 µM (inactive) with RPMI-8226. Further, the GI50 in the test on MCF7 was 11.4 µM (inactive); in the test with HOP-62, > 100 µM (inactive); with SW-620 it was 19.6 µM (inactive); with TK-10, 25.4 µM (inactive); in the test on DU-145 it was > 96.6 µM (inactive).

Consider `NC1=NNC2(C(N)=N1)c1ccccc1-c1ccccc12`, for which the GI50 in the test on HCT-15 was more than 10 µM; in the test with SN12C, > 10 µM (inactive); with KM12, > 10 µM (inactive); in the test with MOLT-4, > 10 µM (inactive); in the test with SK-MEL-28, > 10 µM (inactive); in the test on Hs-578T, > 10 µM (inactive). Besides, the GI50 in the test with OVCAR-8, with RPMI-8226, in the test on MCF7, with HOP-62, in the test on SW-620 and in the test on TK-10 was > 10 µM (inactive) throughout. Further, in the test on DU-145, the GI50 is > 10 µM (inactive).

As to `O=C(c1ccc(Cl)cc1)c1ccc(OCCCCCCCCCCOc2ccc(C(=O)c3ccc(Cl)cc3)cc2)cc1`, the GI50 was > 100 µM (inactive) with K562; more than 100 µM in the test on HCT-15; > 100 µM (inactive) in the test on U-251; > 100 µM (inactive) with SN12C; > 100 µM (inactive) with KM12; > 100 µM (inactive) with MOLT-4. Also, the GI50 in the test on SK-MEL-28, in the test with SK-MEL-2, in the test with OVCAR-8, with A498, with RPMI-8226 and with HOP-62 was > 100 µM (inactive) each time. The GI50 with SW-620 and with TK-10 was > 100 µM (inactive) each time.

Take `O=C(Nc1ccccc1)Nn1c(-c2cccs2)nc2ccc(I)cc2c1=O`: the GI50 in the test on K562 is 0.022 µM (active); with HCT-15 it was 31.5 µM; with U-251, 23.9 µM (inactive); in the test with SN12C, 34.8 µM (inactive); in the test with KM12, 31.3 µM (inactive); with SK-MEL-28, 20.5 µM (inactive). The GI50 was 33.3 µM (inactive) in the test with OVCAR-8; 19.1 µM (inactive) with RPMI-8226; 29.1 µM (inactive) with MCF7; 23.2 µM (inactive) in the test with MDA-N; 51.4 µM (inactive) with HOP-62; 39.4 µM (inactive) in the test with SW-620. Also, the figures for the GI50 in the test with TK-10 and in the test with DU-145 were 28.4 µM (inactive) and 24.3 µM (inactive), respectively.

`Cc1cc(C)c(-n2c(C)c(C)c(C#N)c2N)c(C)c1`: the GI50 is 11 µM (inactive) in the test on K562; 27.9 µM in the test with HCT-15; 17.4 µM (inactive) in the test with U-251; 27.2 µM (inactive) with SN12C; 36.1 µM (inactive) in the test with KM12; 15.6 µM (inactive) with MOLT-4. The GI50 is 37.1 µM (inactive) in the test on SK-MEL-28; 19.5 µM (inactive) in the test with SK-MEL-2; 43.8 µM (inactive) in the test on Hs-578T; 34.6 µM (inactive) in the test on OVCAR-8; 29.3 µM (inactive) in the test with A498; 18.6 µM (inactive) in the test on RPMI-8226. Moreover, the GI50 was 19.2 µM (inactive) with MDA-N; 35.8 µM (inactive) in the test on HOP-62; 26.5 µM (inactive) in the test on SW-620; 32.4 µM (inactive) in the test on TK-10; 38.1 µM (inactive) with DU-145.

On to `Cn1c(-c2ccc(C=O)o2)ccc1-c1ccc(C=O)o1`, for which the GI50 in the test with K562 is 35.5 µM (inactive); in the test on HCT-15, 34 µM; with U-251, 40.7 µM (inactive); in the test with SN12C, 37.6 µM (inactive); with KM12, 36.2 µM (inactive); with MOLT-4, 24.8 µM (inactive). The GI50 in the test on SK-MEL-28 is 40.1 µM (inactive); in the test with SK-MEL-2 it was > 100 µM (inactive); with OVCAR-8, 30.4 µM (inactive); in the test on A498, > 100 µM (inactive); in the test with RPMI-8226, 57.1 µM (inactive); in the test on MCF7 it was 28.8 µM (inactive). For the same molecule, the GI50 in the test with MDA-N was 33.4 µM (inactive); in the test on HOP-62 it was 45.3 µM (inactive); with SW-620, 35.4 µM (inactive); in the test with TK-10, > 100 µM (inactive); in the test with DU-145, 49.4 µM (inactive).

Take `Cc1cc(S(=O)(=O)O)ccc1/N=N/c1ccc(/N=N/c2c(O)ccc3ccccc23)c(C)c1`: the GI50 in the test on K562 is > 100 µM (inactive); in the test with HCT-15 it was 32.1 µM; in the test on U-251, 36.4 µM (inactive); with SN12C, 89.7 µM (inactive); in the test with KM12, 31.6 µM (inactive); in the test with MOLT-4 it was 49.1 µM (inactive). Besides, the GI50 was 67.3 µM (inactive) in the test with SK-MEL-28; > 100 µM (inactive) in the test on SK-MEL-2; > 100 µM (inactive) in the test with Hs-578T; 49.8 µM (inactive) in the test with OVCAR-8; > 100 µM (inactive) with RPMI-8226; 50.1 µM (inactive) in the test on MDA-N. Moreover, the GI50 in the test with HOP-62 was > 100 µM (inactive); in the test on SW-620, 42.3 µM (inactive); with TK-10, 74 µM (inactive); in the test with DU-145, > 100 µM (inactive).

Turning to `C#CCN(Cc1ccc2[nH]c(N)nc(=O)c2c1)c1ccc(C(=O)NC(CCC(=O)O)C(=O)O)cc1` (stereo unspecified), the GI50 in the test on HCT-15 was more than 100 µM; in the test on U-251, 50.9 µM (inactive); in the test with SN12C it was 6.71 µM (inactive); in the test with KM12 it was > 100 µM (inactive); in the test on MOLT-4, 5.4 µM (inactive); with SK-MEL-28, > 100 µM (inactive). Moreover, the GI50 is 4.4 µM (inactive) in the test with OVCAR-8; 15.7 µM (inactive) in the test on A498; 7.46 µM (inactive) in the test on RPMI-8226; 5.13 µM (inactive) in the test on MCF7; > 100 µM (inactive) with MDA-N; 23.4 µM (inactive) in the test on HOP-62. Besides, the GI50 in the test on SW-620 is > 100 µM (inactive); in the test with TK-10, 10.8 µM (inactive); with DU-145 it was 5.94 µM (inactive).

As to `CCOC(=O)c1c(C)n(Cc2ccccc2)c(=O)c2ccccc2c(=O)c2c(=O)ccc(=O)c1=2`, the GI50 in the test with K562 is 43.3 µM (inactive); with HCT-15 it was 34.8 µM; with U-251, > 100 µM (inactive); in the test with SN12C it was 41 µM (inactive); in the test on KM12, > 100 µM (inactive); in the test on MOLT-4, 54.7 µM (inactive). The GI50 with SK-MEL-28 is 55.7 µM (inactive); in the test with SK-MEL-2, > 100 µM (inactive); with Hs-578T, > 100 µM (inactive); with OVCAR-8, > 100 µM (inactive); in the test with A498, > 100 µM (inactive); in the test on RPMI-8226, 31.2 µM (inactive). Further, the GI50 with MDA-N was 73.8 µM (inactive); in the test with HOP-62, > 100 µM (inactive); in the test on SW-620 it was 33.3 µM (inactive); in the test on TK-10 it was 29.1 µM (inactive); in the test with DU-145, > 100 µM (inactive).
